From patent publication US9187472B2 (AbbVie Inc., priority 2012, dated 2015) come the findings set out here.

One test has as its system PC3 cells. As to the kind of experiment: NAMPT Cell Proliferation Assay. The format is cell-based. The settings on record: Homo sapiens, PC-3, 120 h, 5 days incubation, cell viability by Cell Titer Glo. Put shortly: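 Proliferation of PC3 cells treated 5 days with a 10-fold compound series (top 10 μM) was quantified by Cell Titer Glo luminescence; IC50s were fitted from percent inhibition.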
For orientation: ATP-based viability assays read luminescence as a measure of living cells.

For test [1], the target named is NAMPT (human, recombinant, C-terminally His-tagged) (Homo sapiens, UniProt P43490). As to the kind of experiment: Time-Resolved Fluorescence Resonance Energy Transfer (TR-FRET) Binding Assay of NAMPT. To be noted: without substrates; 6.8 nM NAMPT, 200 nM probe, 3 hours equilibration. Put shortly: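 Read-out is the time-resolved FRET ratio Em520/Em495 (excitation 337 nm) between a terbium anti-His antibody (1 nM) on the enzyme and an Oregon Green 488-labelled nicotinamide-competitive inhibitor probe (200 nM). Enzyme was 6.8 nM, DMSO 2%, pH 7.5 HEPES buffer; 3 h room-temperature equilibration preceded reading.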
Sequence of NAMPT (human, recombinant, C-terminally His-tagged) (P43490 whole entry): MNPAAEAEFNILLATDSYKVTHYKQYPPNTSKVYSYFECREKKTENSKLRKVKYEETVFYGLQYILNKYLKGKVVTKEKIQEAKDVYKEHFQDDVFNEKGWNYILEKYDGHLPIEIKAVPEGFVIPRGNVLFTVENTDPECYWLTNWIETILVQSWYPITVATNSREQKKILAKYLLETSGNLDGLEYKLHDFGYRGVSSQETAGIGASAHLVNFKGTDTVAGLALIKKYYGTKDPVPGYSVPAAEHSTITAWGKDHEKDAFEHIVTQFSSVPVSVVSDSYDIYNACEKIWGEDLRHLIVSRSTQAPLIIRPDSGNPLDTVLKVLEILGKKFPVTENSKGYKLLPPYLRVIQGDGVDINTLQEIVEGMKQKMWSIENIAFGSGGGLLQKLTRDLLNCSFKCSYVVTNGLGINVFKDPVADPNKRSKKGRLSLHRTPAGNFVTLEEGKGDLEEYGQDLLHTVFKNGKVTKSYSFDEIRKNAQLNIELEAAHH
(TR-FRET usually uses a lanthanide donor and a delayed reading to cut background.)

The next test has as its target NAMPT (Homo sapiens, UniProt P43490). As to the kind of experiment: TR-FRET Binding Assay of NAMPT with PRPP. To be noted: with 200 μM PRPP and 2.5 mM ATP; 2 nM NAMPT, 2 nM probe, 16 hours equilibration. The gist of the method: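 NAMPT 2 nM + probe 2 nM + Tb-anti-His Ab 1 nM; PRPP 200 μM, ATP 2.5 mM, DMSO 2%; 16 h equilibration before TR-FRET read.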

Usually IC50 stands for the midpoint of a concentration-inhibition curve.

Sequence of NAMPT (P43490 whole entry): as above

As to `CC(C)C(=O)N1CC=C(c2ccc(C(=O)NCc3ccc4nccn4c3)cc2)CC1` [Example 90, N-(imidazo[1,2-a]pyridin-6-ylmethyl)-4-[1-(2-methylpropanoyl)-1,2,3,6-tetrahydropyridin-4-yl]benzamide], the IC50 in the test on PC3 cells was found to be 18.7 nM; in test [1] it was 204 nM; at NAMPT, 0.63 nM.
The matching figures for `O=C(NCc1ccn2ccnc2c1)c1cnc(C2CCN(C(=O)c3ccccc3F)C2)s1` (stereo not drawn) [Example 804, 2-[1-(2-fluorobenzoyl)pyrrolidin-3-yl]-N-(imidazo[1,2-a]pyridin-7-ylmethyl)-1,3-thiazole-5-carboxamide]: 49.7 nM, 289 nM and 0.445 nM.
Consider `CC(C)(C)C(=O)N1CCC(c2ccc(C(=O)NCc3ccn4ccnc4c3)cc2)C1` (stereo not drawn) [Example 585, 4-[1-(2,2-dimethylpropanoyl)pyrrolidin-3-yl]-N-(imidazo[1,2-a]pyridin-7-ylmethyl)benzamide], for which the figures for the IC50 (with PC3 cells; in test [1]; on NAMPT) were 34.6 nM, 641 nM and 0.648 nM, respectively.
The matching figures for `O=C(NCc1ccn2ccnc2c1)Nc1ccc(C2CCN(C(=O)[C@H]3CCCO3)C2)cc1` (stereo partly drawn) [Example 386, 1-(imidazo[1,2-a]pyridin-7-ylmethyl)-3-(4-{1-[(2R)-tetrahydrofuran-2-ylcarbonyl]pyrrolidin-3-yl}phenyl)urea]: 42.4 nM, 283 nM and 0.254 nM.
Take `O=C(CC1CCCC1)Nc1ccc(C(=O)NCc2ccc3nccn3c2)cc1` [Example 52, 4-[(cyclopentylacetyl)amino]-N-(imidazo[1,2-a]pyridin-6-ylmethyl)benzamide]: the IC50 with PC3 cells was 4.07 nM; in test [1] it was 18.6 nM; on NAMPT, 5.79 nM.
The matching figures for `O=C(NCc1cn2ccnc2cn1)c1ccc(C2CCN(C(=O)CC(F)(F)F)CC2)cc1` [Example 815, N-(imidazo[1,2-a]pyrazin-6-ylmethyl)-4-[1-(3,3,3-trifluoropropanoyl)piperidin-4-yl]benzamide]: 5.89 nM, 53 nM and 1.93 nM.
On to `O=C(NCc1cn2ccnc2cn1)c1ccc(C2CCN(C(=O)c3ccc(F)cc3)CC2)cc1` [Example 812, 4-[1-(4-fluorobenzoyl)piperidin-4-yl]-N-(imidazo[1,2-a]pyrazin-6-ylmethyl)benzamide], for which the IC50 in the test with PC3 cells was 38.8 nM; in test [1], 80 nM; at NAMPT, 2.57 nM.
The matching figures for `CC(C)(C)OC(=O)N1CCC(c2ccc(NC(=O)Nc3ccc4nccn4c3)cc2)CC1` [Example 89, tert-butyl 4-{4-[(imidazo[1,2-a]pyridin-6-ylcarbamoyl)amino]phenyl}piperidine-1-carboxylate]: 113 nM, 667 nM and 0.383 nM.
The matching figures for `O=C(NCc1ccn2ccnc2c1)c1ccc(C2CCN(C(=O)CC(F)(F)F)CC2)cc1` [Example 504, N-(imidazo[1,2-a]pyridin-7-ylmethyl)-4-[1-(3,3,3-trifluoropropanoyl)piperidin-4-yl]benzamide]: 15.4 nM, 185 nM and 0.361 nM.
The matching figures for `CC1(Cn2cc(-c3ccc(C(=O)NCc4ccn5ccnc5c4)o3)cn2)COC1` [Example 482, N-(imidazo[1,2-a]pyridin-7-ylmethyl)-5-{1-[(3-methyloxetan-3-yl)methyl]-1H-pyrazol-4-yl}furan-2-carboxamide]: 2.22 nM, 76.3 nM and 0.259 nM.
Turning to `O=C(NCc1ccc2nccn2c1)c1ccc(OC2CCN(C(=O)CC3CC3)CC2)cc1` [Example 172, 4-{[1-(cyclopropylacetyl)piperidin-4-yl]oxy}-N-(imidazo[1,2-a]pyridin-6-ylmethyl)benzamide], the IC50 with PC3 cells came to 223 nM; in test [1], 2210 nM; at NAMPT, 3.55 nM.
Regarding `O=C(CC1CCCO1)Nc1ccc(NC(=O)NCc2ccn3ccnc3c2)cc1` (stereo not drawn) [Example 283, N-(4-{[(imidazo[1,2-a]pyridin-7-ylmethyl)carbamoyl]amino}phenyl)-2-(tetrahydrofuran-2-yl)acetamide], the figures for the IC50 (in the test on PC3 cells; in test [1]; on NAMPT) were 145 nM, 63.2 nM and 0.264 nM, respectively.
The matching figures for `CC(C)(O)C(=O)N1CC(c2ccc(C(=O)NCc3ccn4ccnc4c3)cc2)C1` [Example 550, 4-[1-(2-hydroxy-2-methylpropanoyl)azetidin-3-yl]-N-(imidazo[1,2-a]pyridin-7-ylmethyl)benzamide]: 174 nM, 762 nM and 0.427 nM.
Take `O=C(NCc1ccn2ccnc2c1)Nc1ccc(C2CCN(C(=O)[C@@H]3CCOC3)CC2)cc1` [Example 287, 1-(imidazo[1,2-a]pyridin-7-ylmethyl)-3-(4-{1-[(3R)-tetrahydrofuran-3-ylcarbonyl]piperidin-4-yl}phenyl)urea]: the IC50 worked out at 24.1 nM with PC3 cells, 67.3 nM in test [1] and 0.351 nM at NAMPT.
As to `O=C(NCc1ccn2ccnc2c1)c1ccc(C2CN(C(=O)c3cccs3)C2)cc1` [Example 552, N-(imidazo[1,2-a]pyridin-7-ylmethyl)-4-[1-(thiophen-2-ylcarbonyl)azetidin-3-yl]benzamide], the values for the IC50 (in the test with PC3 cells; in test [1]; at NAMPT) were 42.6 nM, 184 nM and 0.543 nM, respectively.
As for `CC(C)CCn1nccc1-c1ccc(C(=O)NCc2ccn3ccnc3c2)o1` [Example 821, N-(imidazo[1,2-a]pyridin-7-ylmethyl)-5-[1-(3-methylbutyl)-1H-pyrazol-5-yl]furan-2-carboxamide], the IC50 with PC3 cells is 192 nM; in test [1], 663 nM; on NAMPT, 0.284 nM.
Regarding `O=C(NCc1ccn2ccnc2c1)c1ccc(C2CCN(C(=O)CC3CC3)C2)s1` (stereo not drawn) [Example 756, 5-[1-(cyclopropylacetyl)pyrrolidin-3-yl]-N-(imidazo[1,2-a]pyridin-7-ylmethyl)thiophene-2-carboxamide], the IC50 came to 18.9 nM in the test on PC3 cells, 123 nM in test [1] and 0.609 nM at NAMPT.
The matching figures for `O=C(NCc1ccn2ccnc2c1)c1ccc(C2CN(C(=O)c3ccc(Cl)cc3)C2)cc1` [Example 645, 4-[1-(4-chlorobenzoyl)azetidin-3-yl]-N-(imidazo[1,2-a]pyridin-7-ylmethyl)benzamide]: 34 nM, 91 nM and 0.474 nM.
The matching figures for `CC(C)(C)OC(=O)N1CCC(c2ccc(C(=O)Nc3ccc4ncc(Cl)n4c3)cc2)CC1` [Example 491, tert-butyl 4-{4-[(3-chloroimidazo[1,2-a]pyridin-6-yl)carbamoyl]phenyl}piperidine-1-carboxylate]: 7830 nM, over 10000 nM and 1.9 nM.
The matching figures for `COCCC(=O)N(CC1CCOC1)c1ncc(C(=O)NCc2ccc3nccn3c2)s1` (stereo not drawn) [Example 139, N-(imidazo[1,2-a]pyridin-6-ylmethyl)-2-[(3-methoxypropanoyl)(tetrahydrofuran-3-ylmethyl)amino]-1,3-thiazole-5-carboxamide]: 12.2 nM, 582 nM and 0.173 nM.
